In ChEMBL document CHEMBL1157069, “JBIR-22, an inhibitor for protein-protein interaction of the homodimer of proteasome assembly factor 3” (J Nat Prod, 2010) one finds IC50 data, which are given here for 3 compounds.

Assay [1] deals with Catenin beta-1/Transcription factor 7 (Homo sapiens, UniProt P35222+P36402). Kind of assay: Inhibition of T cell factor7/beta-catenin interaction by protein fragment complementation assay. It counts as cell-based.
Assay [2] has as its target T1, Proteasome assembly chaperone 3 (Homo sapiens, UniProt Q9BT73).
T1 sequence (Q9BT73 whole entry): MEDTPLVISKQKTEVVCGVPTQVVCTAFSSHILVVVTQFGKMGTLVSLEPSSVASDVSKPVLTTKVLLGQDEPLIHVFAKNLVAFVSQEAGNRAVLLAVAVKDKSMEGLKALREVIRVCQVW
The experiment in a line: Inhibition of PAC3 homodimerization by protein fragment complementation assay.

In a further assay the target is T2, PAC1-PAC2 complex (Homo sapiens, UniProt O95456+Q969U7).
T2 sequence (O95456 whole entry): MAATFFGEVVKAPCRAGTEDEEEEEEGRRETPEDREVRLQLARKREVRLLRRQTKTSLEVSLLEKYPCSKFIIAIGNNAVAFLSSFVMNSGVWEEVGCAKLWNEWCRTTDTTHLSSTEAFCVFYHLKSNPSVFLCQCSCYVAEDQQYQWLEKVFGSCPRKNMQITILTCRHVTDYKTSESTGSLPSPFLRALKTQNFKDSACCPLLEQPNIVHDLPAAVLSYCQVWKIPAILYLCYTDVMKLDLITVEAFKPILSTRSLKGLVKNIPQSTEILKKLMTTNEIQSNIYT
T2 sequence (Q969U7 whole entry): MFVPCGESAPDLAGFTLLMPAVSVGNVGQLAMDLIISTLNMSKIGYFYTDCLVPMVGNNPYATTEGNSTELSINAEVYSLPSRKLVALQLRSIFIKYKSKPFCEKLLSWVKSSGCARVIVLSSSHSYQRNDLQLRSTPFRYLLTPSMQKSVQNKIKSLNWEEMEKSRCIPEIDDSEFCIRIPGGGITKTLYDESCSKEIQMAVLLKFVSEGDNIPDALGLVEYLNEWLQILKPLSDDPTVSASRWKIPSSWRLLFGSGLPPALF
Kind of assay: Inhibition of PAC1/PAC2 interaction by protein fragment complementation assay. It counts as protein-complex assay.

The test system of assay [3] is HeLa. Kind of assay: Cytotoxicity against human HeLa cells after 120 hrs by WST8 assay. The class given is functional, cell-based.
The test system of assay [4] is HeLa. Kind of assay: Cytotoxicity against human HeLa cells after 48 hrs by WST8 assay. It counts as functional, cell-based.

Chain of Catenin beta-1/Transcription factor 7 (P36402 whole entry, the tested form may be a part): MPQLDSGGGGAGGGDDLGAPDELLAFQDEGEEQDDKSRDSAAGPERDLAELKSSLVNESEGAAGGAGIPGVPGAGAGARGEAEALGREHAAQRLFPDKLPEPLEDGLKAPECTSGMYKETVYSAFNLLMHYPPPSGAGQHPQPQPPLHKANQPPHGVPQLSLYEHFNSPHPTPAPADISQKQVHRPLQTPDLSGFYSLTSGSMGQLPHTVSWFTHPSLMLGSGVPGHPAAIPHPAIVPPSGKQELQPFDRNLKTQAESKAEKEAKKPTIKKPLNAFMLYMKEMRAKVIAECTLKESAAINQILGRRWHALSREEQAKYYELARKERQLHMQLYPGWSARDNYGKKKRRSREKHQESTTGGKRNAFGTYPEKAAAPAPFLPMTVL
Chain of Catenin beta-1/Transcription factor 7 (P35222 whole entry, the tested form may be a part): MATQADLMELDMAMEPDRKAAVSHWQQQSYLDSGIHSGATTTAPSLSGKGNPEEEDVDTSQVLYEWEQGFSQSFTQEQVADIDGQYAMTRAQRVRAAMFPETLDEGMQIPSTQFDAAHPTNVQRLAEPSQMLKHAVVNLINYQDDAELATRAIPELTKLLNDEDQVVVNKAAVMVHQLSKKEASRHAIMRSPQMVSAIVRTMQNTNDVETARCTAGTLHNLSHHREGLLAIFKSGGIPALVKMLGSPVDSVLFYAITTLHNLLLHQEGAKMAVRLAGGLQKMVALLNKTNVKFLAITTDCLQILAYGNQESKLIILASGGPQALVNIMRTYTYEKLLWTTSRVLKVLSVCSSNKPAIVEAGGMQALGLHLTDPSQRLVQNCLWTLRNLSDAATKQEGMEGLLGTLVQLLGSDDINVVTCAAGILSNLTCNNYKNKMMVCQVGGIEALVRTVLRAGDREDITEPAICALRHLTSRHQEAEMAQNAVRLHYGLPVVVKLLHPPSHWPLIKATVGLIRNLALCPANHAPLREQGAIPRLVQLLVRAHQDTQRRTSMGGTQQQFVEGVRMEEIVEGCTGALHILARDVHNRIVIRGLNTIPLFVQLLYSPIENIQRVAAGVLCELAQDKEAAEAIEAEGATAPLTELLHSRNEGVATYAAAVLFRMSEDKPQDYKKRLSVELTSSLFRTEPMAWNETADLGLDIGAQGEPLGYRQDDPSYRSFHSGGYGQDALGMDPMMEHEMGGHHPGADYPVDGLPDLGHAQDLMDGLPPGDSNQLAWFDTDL

`CC(C)[C@@](O)(C[C@H]1C(=O)/C(=C(\O)[C@H]2[C@@H]3CCCC[C@H]3C=C[C@H]2C)C(=O)N1C)C(=O)O`: the IC50 in assay [1] came to 6000 nM; in assay [2], 200 nM; against PAC1-PAC2 complex, 6000 nM; with HeLa [3] it was 68000 nM.
Consider `COc1cccc2c1C(=O)c1c(O)c3c(c(O)c1C2=O)C[C@@](O)(C(=O)CO)C[C@@H]3O[C@H]1C[C@H](N)[C@H](O)[C@H](C)O1` [DOXORUBICIN], for which the IC50 with HeLa [4] is 37 nM; in the assay with HeLa [3] it was 55 nM.
On to `CC(=O)O[C@H]1C(=O)[C@@]2(C)[C@H]([C@H](OC(=O)c3ccccc3)[C@]3(O)C[C@H](OC(=O)[C@H](O)[C@@H](NC(=O)c4ccccc4)c4ccccc4)C(C)=C1C3(C)C)[C@]1(OC(C)=O)CO[C@@H]1C[C@@H]2O` [PACLITAXEL], for which the IC50 in the assay on HeLa [4] amounted to 30 nM; with HeLa [3], 190 nM.
